# Columns and labels:
# Type in all cases: biochemical
# WT BTK [1] = target: T1, WT BTK (Homo sapiens, UniProt Q06187); test: In vitro dialysis assay (irreversibility assay), WT BTK; conditions: reversible or irreversible/covalent inhibition after 24 h dialysis
# Description: The compound-enzyme complex was dialyzed against the same buffer supplemented with 40 mM ATP for 24 hr. Cumulative dialysis factor>160,000×. After dialysis, the BTK activity was measured in the presence […] and 1 mM substrate peptide and compared to that in non-dialyzed samples. Assay buffer: 100 mM HEPES, pH7.5; […]; 5 mM MgCl2; 1 mM DTT. In this study, Ibrutiib (a FDA approved irreversible BTK inhibitor) was used as a positive control and Saurosporine (a reversible BTK inhibitor) was used as a negative control.
# WT BTK [2] = target: T1, WT BTK; test: Caliper-based kinase assay, WT BTK; conditions: 0.5 nM enzyme, ATP 16 μM, room temperature 3 h; read-out: WT BTK IC50 (nM) (irreversible inhibition)
# Description: (§1) A Caliper-based kinase assay (Caliper Life Sciences, Hopkinton, Mass.) was used to measure inhibition of WT and […] Btk kinase activity of a compound of the present disclosure. […] The reaction was then terminated with EDTA, final concentration 20 mM and the phosphorylated reaction product was quantified on a Caliper Desktop Profiler (Caliper LabChip 3000).
# C481S Btk = C481S Btk (Homo sapiens, UniProt Q06187, C481S); test: Caliper-based kinase assay, C481S BTK; conditions: 0.5 nM enzyme, ATP 16 μM, room temperature 3 h; read-out: C481S BTK IC50 (nM) (reversible inhibition)
# Description: as §1
# T1 sequence (Q06187 whole entry): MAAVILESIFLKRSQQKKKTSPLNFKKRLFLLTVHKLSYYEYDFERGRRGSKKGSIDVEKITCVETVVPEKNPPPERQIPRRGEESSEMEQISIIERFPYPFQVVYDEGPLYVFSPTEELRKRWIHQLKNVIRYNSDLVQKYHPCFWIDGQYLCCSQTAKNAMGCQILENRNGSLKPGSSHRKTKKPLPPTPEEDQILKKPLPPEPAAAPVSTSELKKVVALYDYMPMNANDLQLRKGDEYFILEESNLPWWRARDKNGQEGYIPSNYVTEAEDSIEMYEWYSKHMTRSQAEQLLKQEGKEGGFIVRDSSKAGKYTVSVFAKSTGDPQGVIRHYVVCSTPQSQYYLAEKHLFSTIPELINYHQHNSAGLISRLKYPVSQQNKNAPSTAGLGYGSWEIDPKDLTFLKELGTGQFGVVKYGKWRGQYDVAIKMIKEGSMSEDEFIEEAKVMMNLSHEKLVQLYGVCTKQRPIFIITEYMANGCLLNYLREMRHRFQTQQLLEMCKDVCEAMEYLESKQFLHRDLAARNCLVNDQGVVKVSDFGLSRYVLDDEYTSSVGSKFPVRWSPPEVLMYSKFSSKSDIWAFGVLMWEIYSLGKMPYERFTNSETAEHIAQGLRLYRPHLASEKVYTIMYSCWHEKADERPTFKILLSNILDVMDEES
# Chain of C481S Btk (Q06187 whole entry C481S): as the sequence (Q06187 whole entry) above, with C481S counted along it
SMILES,Conclusion (WT BTK) (WT BTK [1]),IC50 (WT BTK [2]),IC50 (C481S Btk)
"C=CC(=O)Nc1cc(Nc2nc(-c3ccnc(N4CCn5c(cc6c5CC(C)(C)C6)C4=O)c3CO)cn(C)c2=O)ccc1N1CCN(C2CCOCC2)C[C@@H]1C [Example 22, N-(5-[[6-(2-[4,4-dimethyl-9-oxo-1,10-diazatricyclo[6.4.0.0^[2,6]]dodeca-2(6),7-dien-10-yl]-3-(hydroxymethyl)pyridin-4-yl)-4-methyl-3-oxopyrazin-2-yl]amino]-2-[(2S)-2-methyl-4-(oxan-4-yl)piperazin-1-yl]phenyl)prop-2-enamide]",Irreversible/covalent inhibition,0.046 nM,0.48 nM
"C=CC(=O)Nc1cc(Nc2nc(-c3ccnc(N4CCn5c(cc6c5CC(C)(C)C6)C4=O)c3CO)cn(C)c2=O)ccc1N1CCN(C2COC2)C[C@@H]1C [Example 3, (S)—N-(5-((6-(2-(7,7-dimethyl-1-oxo-1,3,4,6,7,8-hexahydro-2H-cyclopenta[4,5]pyrrolo[1,2-a]pyrazin-2-yl)-3-(hydroxymethyl)pyridin-4-yl)-4-methyl-3-oxo-3,4-dihydropyrazin-2-yl)amino)-2-(2-methyl-4-(oxetan-3-yl)piperazin-1-yl)phenyl)acrylamide]",Irreversible/covalent inhibition,0.14 nM,0.72 nM
"C=CC(=O)Nc1cc(Nc2nc(-c3ccnc(N4CCn5c(cc6c5CC(C)(C)C6)C4=O)c3C)cn(C)c2=O)ccc1N1CCN(C2CCOCC2)C[C@@H]1C [Example 40, N-(5-[[6-(2-[4,4-dimethyl-9-oxo-1,10-diazatricyclo[6.4.0.0^[2,6]]dodeca-2(6),7-dien-10-yl]-3-methylpyridin-4-yl)-4-methyl-3-oxopyrazin-2-yl]amino]-2-[(2S)-2-methyl-4-(oxan-4-yl)piperazin-1-yl]phenyl)prop-2-enamide]",Irreversible/covalent inhibition,0.083 nM,–
"C=CC(=O)Nc1cc(Nc2nc(-c3ccnc(N4CCc5c(sc6c5CCCC6)C4=O)c3C)cn(C)c2=O)ccc1N1CCN(C2CCOCC2)C[C@H]1C(F)(F)F [Example 54-S, N-(5-[[4-methyl-6-(3-methyl-2-[6-oxo-8-thia-5-azatricyclo[7.4.0.0^[2,7]]trideca-1(9), 2(7)-dien-5-yl]pyridin-4-yl)-3-oxopyrazin-2-yl]amino]-2-[(2S)-4-(oxan-4-yl)-2-(trifluoromethyl)piperazin-1-yl]phenyl)prop-2-enamide]",Irreversible/covalent inhibition,4.4 nM,–
"C=CC(=O)Nc1cc(Nc2nc(-c3ccnc(N4CCc5c(sc6c5CCCC6)C4=O)c3CO)cn(C)c2=O)ccc1N1CCN(C2CCOCC2)C[C@@H]1C(F)(F)F [Example 55-R, N-[5-([6-[3-(hydroxymethyl)-2-[6-oxo-8-thia-5-azatricyclo[7.4.0.0^[2,7]]trideca-1(9), 2(7)-dien-5-yl]pyridin-4-yl]-4-methyl-3-oxopyrazin-2-yl]amino)-2-[(2R)-4-(oxan-4-yl)-2-(trifluoromethyl)piperazin-1-yl]phenyl]prop-2-enamide]",Irreversible/covalent inhibition,0.24 nM,–
"C=CC(=O)Nc1cc(Nc2nc(-c3ccnc(N4CCc5c(sc6c5CCCC6)C4=O)c3C)cn(C)c2=O)ccc1N1CCN(C2COC2)C[C@@H]1C [Example 44, (S)—N-(2-(2-methyl-4-(oxetan-3-yl)piperazin-1-yl)-5-((4-methyl-6-(3-methyl-2-(1-oxo-3,4,5,6,7,8-hexahydrobenzo [4, 5]thieno [2,3-c]pyridin-2(1H)-yl)pyridin-4-yl)-3-oxo-3,4-dihydropyrazin-2-yl)amino)phenyl) acrylamide]",Irreversible/covalent inhibition,0.98 nM,–
"C=CC(=O)Nc1cc(Nc2nc(-c3ccnc(N4CCc5c(sc6c5CCCC6)C4=O)c3C)cn(C)c2=O)ccc1N1CCN(C2CCOCC2)C[C@@H]1C(F)(F)F [Example 54-R, N-(5-[[4-methyl-6-(3-methyl-2-[6-oxo-8-thia-5-azatricyclo[7.4.0.0^[2,7]]trideca-1(9), 2(7)-dien-5-yl]pyridin-4-yl)-3-oxopyrazin-2-yl]amino]-2-[(2R)-4-(oxan-4-yl)-2-(trifluoromethyl)piperazin-1-yl]phenyl)prop-2-enamide]",Irreversible/covalent inhibition,2.9 nM,–
"C=CC(=O)Nc1cc(Nc2nc(-c3ccnc(N4CCc5c(sc6c5CC(C)(C)C6)C4=O)c3CO)cn(C)c2=O)ccc1N1CCN(C2COC2)C[C@@H]1C [Example 34, N-(5-[[6-(2-[4,4-dimethyl-9-oxo-7-thia-10-azatricyclo[6.4.0.0^[2,6]]dodeca-1(8),2(6)-dien-10-yl]-3-(hydroxymethyl)pyridin-4-yl)-4-methyl-3-oxopyrazin-2-yl]amino]-2-[(2S)-2-methyl-4-(oxetan-3-yl)piperazin-1-yl]phenyl)prop-2-enamide]",Irreversible/covalent inhibition,–,0.46 nM
"C=CC(=O)Nc1cc(Nc2nc(-c3ccnc(N4CCn5c(cc6c5CC(C)(C)C6)C4=O)c3C)cn(C)c2=O)cnc1N1CCN(C2COC2)C[C@@H]1C [Example 46, N-(5-[[6-(2-[4,4-dimethyl-9-oxo-1,10-diazatricyclo[6.4.0.0^[2,6]]dodeca-2(6),7-dien-10-yl]-3-methylpyridin-4-yl)-4-methyl-3-oxopyrazin-2-yl]amino]-2-[(2S)-2-methyl-4-(oxetan-3-yl)piperazin-1-yl]pyridin-3-yl)prop-2-enamide]",Irreversible/covalent inhibition,0.16 nM,–
"C=CC(=O)Nc1cc(Nc2nc(-c3ccnc(N4CCn5c(cc6c5CC(C)(C)C6)C4=O)c3C)cn(C)c2=O)ccc1N1CCN(C2COC2)CC1(C)C [Example 45, N-[2-[2,2-dimethyl-4-(oxetan-3-yl)piperazin-1-yl]-5-[[6-(2-[4,4-dimethyl-9-oxo-1,10-diazatricyclo[6.4.0.0^[2,6]]dodeca-2(6),7-dien-10-yl]-3-methylpyridin-4-yl)-4-methyl-3-oxopyrazin-2-yl]amino]phenyl]prop-2-enamide]",Irreversible/covalent inhibition,0.36 nM,–
"C=CC(=O)Nc1cc(Nc2nc(-c3ccnc(N4CCn5c(cc6c5CC(C)(C)C6)C4=O)c3CO)cn(C)c2=O)ccc1N1CCN(C2CCOCC2)CC1C (centres unmarked) [Example 47, N-(5-((6-(2-(7,7-dimethyl-1-oxo-1,3,4,6,7,8-hexahydro-2H-cyclopenta[4,5]pyrrolo[1,2-a]pyrazin-2-yl)-3-(hydroxymethyl)pyridin-4-yl)-4-methyl-3-oxo-3,4-dihydropyrazin-2-yl)amino)-2-(2-methyl-4-(tetrahydro-2H-pyran-4-yl)piperazin-1-yl)phenyl)acrylamide]",Irreversible/covalent inhibition,0.12 nM,–
"C=CC(=O)Nc1cc(Nc2nc(-c3ccnc(N4CCn5c(cc6c5CC(C)(C)C6)C4=O)c3C)cn(C)c2=O)ccc1N1CCN(C2CCOCC2)C[C@H]1C(F)(F)F [Example 53-S, N-(5-[[6-(2-[4,4-dimethyl-9-oxo-1,10-diazatricyclo[6.4.0.0^[2,6]]dodeca-2(6),7-dien-10-yl]-3-methylpyridin-4-yl)-4-methyl-3-oxopyrazin-2-yl]amino]-2-[(2S)-4-(oxan-4-yl)-2-(trifluoromethyl)piperazin-1-yl]phenyl)prop-2-enamide]",Irreversible/covalent inhibition,1 nM,–
"C=CC(=O)Nc1cc(Nc2nc(-c3ccnc(N4CCn5c(cc6c5CC(C)(C)C6)C4=O)c3C)cn(C)c2=O)ccc1N1CCN(C2CCOCC2)C[C@@H]1C(F)(F)F [Example 53-R, N-(5-[[6-(2-[4,4-dimethyl-9-oxo-1,10-diazatricyclo[6.4.0.0^[2,6]]dodeca-2(6),7-dien-10-yl]-3-methylpyridin-4-yl)-4-methyl-3-oxopyrazin-2-yl]amino]-2-[(2R)-4-(oxan-4-yl)-2-(trifluoromethyl)piperazin-1-yl]phenyl)prop-2-enamide]",Irreversible/covalent inhibition,0.4 nM,–
"C=CC(=O)Nc1cc(Nc2nc(-c3ccnc(N4CCn5c(cc6c5CC(C)(C)C6)C4=O)c3CO)cn(C)c2=O)cc(F)c1N1CCN(C2COC2)C[C@@H]1C [Example 30, N-(5-[[6-(2-[4,4-dimethyl-9-oxo-1,10-diazatricyclo[6.4.0.0^[2,6]]dodeca-2(6),7-dien-10-yl]-3-(hydroxymethyl)pyridin-4-yl)-4-methyl-3-oxopyrazin-2-yl]amino]-3-fluoro-2-[(2S)-2-methyl-4-(oxetan-3-yl)piperazin-1-yl]phenyl)prop-2-enamide]",–,1.58 nM,1.6 nM
"C=CC(=O)Nc1cc(Nc2nc(-c3ccnc(N4CCn5c(cc6c5CC(C)(C)C6)C4=O)c3CO)cn(C)c2=O)ccc1N1CCN(C2CCOCC2)C[C@@H]1C(F)(F)F [Example 48-R, N-(5-[[6-(2-[4,4-dimethyl-9-oxo-1,10-diazatricyclo[6.4.0.0^[2,6]]dodeca-2(6),7-dien-10-yl]-3-(hydroxymethyl)pyridin-4-yl)-4-methyl-3-oxopyrazin-2-yl]amino]-2-[(2R)-4-(oxan-4-yl)-2-(trifluoromethyl)piperazin-1-yl]phenyl)prop-2-enamide]",Irreversible/covalent inhibition,0.065 nM,–
